# Data reported in patent US8778437B2, “Taste improving substances” (Givaudan Nederland Services B.V., priority 2004, dated 2014).
# Tested on: panel
# Assay: Panel comparison of carbonated lemonade with and without test substance (Example 3)
# Type: in vivo
# Details: 0.03 wt.% of spray dried sample of Example 2 in carbonated lemonade (10% sugar, 1200 ppm citric acid, 100 ppm ascorbic acid, pH 3)
# Method: A basic carbonated lemonade containing 10% sugar, 1200 ppm citric acid and 100 ppm ascorbic acid, was prepared. The pH of the lemonade was 3. This was used as the control. To the test lemonade the spray dried sample described in Example 2 was added in an amount of 0.03 wt. %. The two lemonades were compared by a panel.
smiles,measurement,value
"CC(O)C(=O)NCCOP(=O)(O)O (stereo not shown) [N-lactoyl-ethanolaminie-phosphate, N-Lactoyl ethanolamine phosphate]",taste description of lemonade compared with control,"more acidic, more natural, more juicy, more complex"
